Assay results: patent US10844044B2 (Vanderbilt University, priority 2018, dated 2020)
Like-named read-outs stand apart in the source and are kept apart here.

How the values were obtained:
WDR5 = WDR5 (Homo sapiens (Human), UniProt P61964); assay: TR-FRET binding assay (displacement of 10mer-Thr-FAM probe from WDR5); conditions: read-out: Ki for Inhibition of WDR5 by TR-FRET assay
[1] = test system: MV4:11 human cancer cell lines; assay: Anti-proliferative activity, CellTiter-Glo viability assay, 7 day protocol; assay type: cell-based; conditions: Homo sapiens, MV4-11, 168 h, MV4:11 cells, 7 day incubation, read-out: GI50 on cellular proliferation of MV4:11 human cancer cell lines
In short: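 Luminescent CellTiter-Glo readout after 7-day compound exposure of MV4:11 cells plated at 3600 cells/ml (final DMSO 0.1%). GI50 derived from three biological × three technical replicates, reported as mean ± S.E.M.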

In the case of `Cc1cc([C@@H](NC(=O)c2cc(CN3CCN(C)C3=N)cc(-c3cccnc3C(F)(F)F)c2)C2CC2)ccc1F` [Example 143, (S)—N-(Cyclopropyl(4-fluoro-3-methylphenyl)methyl)-3-((2-imino-3-methylimidazolidin-1-yl)methyl)-5-(2-(trifluoromethyl)pyridin-3-yl)benzamide], the Ki (WDR5) is reported as less than 0.1 nM and the GI50 [1] is reported as 170 nM.
In the case of `Cc1cc([C@@H](NC(=O)c2cc(CN3CCOC3=N)cc(-c3ccc(F)cc3C(F)F)c2)C2CC2)ccc1F` [Example 272, (S)—N-(Cyclopropyl(4-fluoro-3-methylphenyl)methyl)-2′-(difluoromethyl)-4′-fluoro-5-((2-iminooxazolidin-3-yl)methyl)-[1,1′-biphenyl]-3-carboxamide], the Ki (WDR5; TR-FRET, 10mer-Thr-FAM probe, WDR5-His tag 2 nM, pH 7.0) is reported as less than 0.1 nM and the GI50 [1] is reported as 100 nM.
In the case of `Cc1ccn(Cc2cc(C(=O)N[C@H](c3ccc(F)c(C)c3)C3CC3)cc(-c3cccnc3C(F)(F)F)c2)c(=N)c1` [Example 344, (S)—N-(Cyclopropyl(4-fluoro-3-methylphenyl)methyl)-3-((2-imino-4-methylpyridin-1(2H)-yl)methyl)-5-(2-(trifluoromethyl)pyridin-3-yl)benzamide], the Ki (WDR5) is reported as 0.48 nM and the GI50 [1] is reported as 680 nM.
